Results on two compounds are retold here after publication PMC12041370, “AARS2-catalyzed lactylation induces follicle development and premature ovarian insufficiency” (Cell Death Discovery, 2025).

The target in assay [1] is T1, AARS2 (Homo sapiens, UniProt Q5JTZ9).
T1 construct: full-length human AARS2 985 aa
T1 sequence (Q5JTZ9 11-985): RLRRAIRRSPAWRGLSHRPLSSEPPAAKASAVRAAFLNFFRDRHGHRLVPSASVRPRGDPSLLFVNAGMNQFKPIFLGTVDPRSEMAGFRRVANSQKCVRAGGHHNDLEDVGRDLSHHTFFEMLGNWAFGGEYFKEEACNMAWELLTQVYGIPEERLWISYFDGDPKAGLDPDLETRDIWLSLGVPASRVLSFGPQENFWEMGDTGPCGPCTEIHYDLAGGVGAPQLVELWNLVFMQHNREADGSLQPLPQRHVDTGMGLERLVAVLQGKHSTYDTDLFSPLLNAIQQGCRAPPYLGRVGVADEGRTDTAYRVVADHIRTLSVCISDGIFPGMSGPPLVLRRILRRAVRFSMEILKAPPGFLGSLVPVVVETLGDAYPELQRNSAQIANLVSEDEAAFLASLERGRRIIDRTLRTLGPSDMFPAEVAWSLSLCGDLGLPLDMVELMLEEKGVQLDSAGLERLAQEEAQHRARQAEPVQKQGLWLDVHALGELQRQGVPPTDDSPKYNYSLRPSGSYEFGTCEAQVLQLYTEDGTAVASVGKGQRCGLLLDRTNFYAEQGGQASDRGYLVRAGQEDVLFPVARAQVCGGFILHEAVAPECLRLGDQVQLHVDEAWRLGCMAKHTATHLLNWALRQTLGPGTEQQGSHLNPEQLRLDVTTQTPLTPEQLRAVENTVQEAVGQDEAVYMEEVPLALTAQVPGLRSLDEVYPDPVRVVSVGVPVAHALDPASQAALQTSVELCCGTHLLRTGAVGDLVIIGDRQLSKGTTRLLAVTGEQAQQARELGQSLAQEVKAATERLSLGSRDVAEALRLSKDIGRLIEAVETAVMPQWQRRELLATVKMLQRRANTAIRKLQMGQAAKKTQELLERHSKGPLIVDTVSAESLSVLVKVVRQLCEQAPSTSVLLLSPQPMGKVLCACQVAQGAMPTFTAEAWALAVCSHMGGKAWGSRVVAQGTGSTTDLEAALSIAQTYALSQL
Nature of the assay: isothermal titration calorimetry (Microcal). The format is binding. As to conditions: read-out: K. An excerpt: isothermal titration calorimetry (Microcal) on AARS2 | The parameters of lactate binding to AARS2 were as follows

The target of assay [2] is T2, AARS2 (Homo sapiens, UniProt Q5JTZ9, R199C).
T2 construct: full-length human AARS2 985 aa
T2 sequence (Q5JTZ9 11-985 R199C): T1 sequence (Q5JTZ9 11-985) with R189C
Briefly: isothermal titration calorimetry (Microcal). Particulars: read-out: K. The format is binding. An excerpt:
isothermal titration calorimetry (Microcal) on AARS2 | For lactate binding to the R199C mutant, the parameters were as follows

For assay [3], the target named is T1, AARS2. Briefly: in vitro lactylation of PDHA1 and CPT2, Western blot. Format: biochemical. As to conditions: β-alanine in reaction mix, concentration not told.

Substitutions are numbered along the chain they refer to.

With `C[C@H](O)C(=O)O` [lactate], the Kd was 8.23 to 17.9 µM at AARS2 [1] and 2.6 to 3.7 µM at AARS2 [2].
For the compound `NCCC(=O)O` [β-alanine], the inhibition entry on AARS2 [3] was “β-alanine inactivated lactyltransferase activities of both AARS2 and R199C”.
